# Measured values published in US9873709B2 (priority 2013, dated 2018).
# Tested on: JAK1-dependent STAT6 phosphorylation downstream of IL-13 stimulation in TF-1 human erythroleukemia cells
# Assay: cells
# Conditions: TF-1, read-out: IL-13-pSTAT6 IC50
row,SMILES,IC50 [nM]
1,"O=C(CCC(F)(F)F)N1CC=C(c2cccn3nc(Nc4ccc(C(=O)N5CCN(CCO)CC5)cc4)nc23)CC1 [Example 2-153, 4,4,4-trifluoro-1-[4-[2-[4-[4-(2-hydroxyethyl)piperazine-1-carbonyl]anilino]-[1,2,4]triazolo[1,5-a]pyridin-8-yl]-3,6-dihydro-2H-pyridin-1-yl]butan-1-one]",28.6
2,"O=C(CCC(F)(F)F)N1CC=C(c2cccn3nc(Nc4ccc(C(=O)N5CCC(c6cc7cccnc7[nH]6)CC5)cc4)nc23)CC1 [Example 2-155, 4,4,4-trifluoro-1-[4-[2-[4-[4-(1H-pyrrolo[2,3-b]pyridin-2-yl)piperidine-1-carbonyl]anilino]-[1,2,4]triazolo[1,5-a]pyridin-8-yl]-3,6-dihydro-2H-pyridin-1-yl]butan-1-one]",132
3,"CN1CCN(C(=O)C2CN(C(=O)c3ccc(Nc4nc5c(C6=CCN(C(=O)CCC(F)(F)F)CC6)cccn5n4)cc3)C2)CC1 [Example 2-159, 4,4,4-trifluoro-1-[4-[2-[4-[3-(4-methylpiperazine-1-carbonyl)azetidine-1-carbonyl]anilino]-[1,2,4]triazolo[1,5-a]pyridin-8-yl]-3,6-dihydro-2H-pyridin-1-yl]butan-1-one]",35.1
4,"CN1CCC(N(C)C(=O)c2ccc(Nc3nc4c(C5=CCN(C(=O)C6CC6(C)C)CC5)cccn4n3)cc2)CC1 (centres unmarked) [Example 2-160, 4-[[8-[1-(2,2-dimethylcyclopropanecarbonyl)-3,6-dihydro-2H-pyridin-4-yl]-[1,2,4]triazolo[1,5-a]pyridin-2-yl]amino]-N-methyl-N-(1-methyl-4-piperidyl)benzamide]",47
5,"CN1CCC(N(C)C(=O)c2ccc(Nc3nc4c(C5=CCN(C(=O)C6C(C)(C)C6(C)C)CC5)cccn4n3)cc2)CC1 [Example 2-161, N-methyl-N-(1-methyl-4-piperidyl)-4-[[8-[1-(2,2,3,3-tetramethylcyclopropanecarbonyl)-3,6-dihydro-2H-pyridin-4-yl]-[1,2,4]triazolo[1,5-a]pyridin-2-yl]amino]benzamide]",44.2
6,"CN1CCC(N(C)C(=O)c2ccc(Nc3nc4c(C5=CCN(C(=O)CC(F)(F)F)CC5)cccn4n3)cc2)CC1 [Example 2-163, N-methyl-N-(1-methyl-4-piperidyl)-4-[[8-[1-(3,3,3-trifluoropropanoyl)-3,6-dihydro-2H-pyridin-4-yl]-[1,2,4]triazolo[1,5-a]pyridin-2-yl]amino]benzamide]",28.4
7,"CCOC(=O)N1CC=C(c2cccn3nc(Nc4ccc(C(=O)N5CC(CN)C5)cc4)nc23)CC1 [Example 2-165, ethyl 4-[2-[4-[3-(aminomethyl)azetidine-1-carbonyl]anilino]-[1,2,4]triazolo[1,5-a]pyridin-8-yl]-3,6-dihydro-2H-pyridine-1-carboxylate]",187
8,"CCOC(=O)N1CC=C(c2cccn3nc(Nc4ccc(C(=O)NCc5cncc(C)c5)cc4)nc23)CC1 [Example 2-178, ethyl 4-[2-[4-[(5-methyl-3-pyridyl)methylcarbamoyl]anilino]-[1,2,4]triazolo[1,5-a]pyridin-8-yl]-3,6-dihydro-2H-pyridine-1-carboxylate]",32.6
9,"CCOC(=O)N1CC=C(c2cccn3nc(Nc4ccc(C(=O)N5CC6(CCCNC6)C5)cc4)nc23)CC1 [Example 2-185, ethyl 4-[2-[4-(2,8-diazaspiro[3,5]nonane-2-carbonyl)anilino]-[l,2,4]triazolo[l,5-a]pyridin-8-yl]-3,6-dihydro-2H-pyridine-1-carboxylate]",29.9
10,"O=C(CCC(F)(F)F)N1CC=C(c2cccn3nc(Nc4ccc(C(=O)N5CCC6(CCNCC6)C5)cc4)nc23)CC1 [Example 2-187, 1-[4-[2-[4-(2,8-diazaspiro[4.5]decane-2-carbonyl)anilino]-[1,2,4]triazolo[1,5-a]pyridin-8-yl]-3,6-dihydro-2H-pyridin-1-yl]-4,4,4-trifluoro-butan-1-one]",652
11,"O=C(NC1COC2(CCNCC2)C1)c1ccc(Nc2nc3c(C4=CCN(C(=O)CCC(F)(F)F)CC4)cccn3n2)cc1 (centres unmarked) [Example 2-188, N-(1-oxa-8-azaspiro[4.5]decan-3-yl)-4-[[8-[1-(4,4,4-trifluorobutanoyl)-3,6-dihydro-2H-pyridin-4-yl]-[1,2,4]triazolo[1,5-a]pyridin-2-yl]amino]benzamide]",239
12,"O=C(NCC1CCC2(CCNCC2)CO1)c1ccc(Nc2nc3c(C4=CCN(C(=O)CCC(F)(F)F)CC4)cccn3n2)cc1 (centres unmarked) [Example 2-189, N-(2-oxa-9-azaspiro[5.5]undecan-3-ylmethyl)-4-[[8-[1-(4,4,4-trifluorobutanoyl)-3,6-dihydro-2H-pyridin-4-yl]-[1,2,4]triazolo[1,5-a]pyridin-2-yl]amino]benzamide]",110

# The next molecules have a lower IC50 than those just listed; values first:
row,IC50 [nM],SMILES
1,10.7,"CN1CCC(C2CCCCN2C(=O)c2ccc(Nc3nc4c(C5=CCN(C(=O)CCC(F)(F)F)CC5)cccn4n3)cc2)CC1 (centres unmarked) [Example 2-149, 4,4,4-trifluoro-1-[4-[2-[4-[2-(1-methyl-4-piperidyl)piperidine-1-carbonyl]anilino]-[1,2,4]triazolo[1,5-a]pyridin-8-yl]-3,6-dihydro-2H-pyridin-1-yl]butane-1-one]"
2,8.3,"CN1CCC(N(C(=O)c2ccc(Nc3nc4c(C5=CCN(C(=O)CCC(F)(F)F)CC5)cccn4n3)cc2)C2CC2)CC1 [Example 2-150, N-cyclopropyl-N-(1-methyl-4-piperidyl)-4-[[8-[1-(4,4,4-trifluorobutanoyl)-3,6-dihydro-2H-pyridin-4-yl]-[1,2,4]triazolo[1,5-a]pyridin-2-yl]amino]benzamide]"
3,5.7,"O=C(CCC(F)(F)F)N1CC=C(c2cccn3nc(Nc4ccc(C(=O)N5CCN6CCCCC6C5)cc4)nc23)CC1 (centres unmarked) [Example 2-151, 1-[4-[2-[4-(1,3,4,6,7,8,9,9a-octahydropyrido[1,2-a]pyrazine-2-carbonyl)anilino]-[1,2,4]triazolo[1,5-a]pyridin-8-yl]-3,6-dihydro-2H-pyridin-1-yl]-4,4,4-trifluoro-butan-1-one]"
4,9.3,"CN(CCc1ccccn1)C(=O)c1ccc(Nc2nc3c(C4=CCN(C(=O)CCC(F)(F)F)CC4)cccn3n2)cc1 [Example 2-152, N-methyl-N-[2-(2-pyridyl)ethyl]-4-[[8-[1-(4,4,4-trifluorobutanoyl)-3,6-dihydro-2H-pyridin-4-yl]-[1,2,4]triazolo[1,5-a]pyridin-2-yl]amino]benzamide]"
5,8.3,"O=C(CCC(F)(F)F)N1CC=C(c2cccn3nc(Nc4ccc(C(=O)N5CCC(c6ccccn6)CC5)cc4)nc23)CC1 [Example 2-156, 4,4,4-trifluoro-1-[4-[2-[4-[4-(2-pyridyl)piperidine-1-carbonyl]anilino]-[1,2,4]triazolo[1,5-a]pyridin-8-yl]-3,6-dihydro-2H-pyridin-1-yl]butan-1-one]"
6,4.7,"CC1CN(C2CCN(C(=O)c3ccc(Nc4nc5c(C6=CCN(C(=O)CCC(F)(F)F)CC6)cccn5n4)cc3)CC2)CC(C)O1 (centres unmarked) [Example 2-157, 1-[4-[2-[4-[4-(2,6-dimethylmorpholin-4-yl)piperidine-1-carbonyl]anilino]-[1,2,4]triazolo[1,5-a]pyridin-8-yl]-3,6-dihydro-2H-pyridin-1-yl]-4,4,4-trifluoro-butan-1-one]"
7,7.3,"CN(C)[C@H]1CCN(C(=O)c2ccc(Nc3nc4c(C5=CCN(C(=O)CCC(F)(F)F)CC5)cccn4n3)cc2)C1 [Example 2-158, 1-[4-[2-[4-[(3S)-3-(dimethylamino)pyrrolidine-1-carbonyl]anilino]-[1,2,4]triazolo[1,5-a]pyridin-8-yl]-3,6-dihydro-2H-pyridin-1-yl]-4,4,4-trifluoro-butan-1-one]"
8,15.8,"CCOC(=O)N1CC=C(c2cccn3nc(Nc4ccc(C(=O)NCCN5CC(C)OC(C)C5)cc4)nc23)CC1 (centres unmarked) [Example 2-167, ethyl 4-[2-[4-[2-(2,6-dimethylmorpholin-4-yl)ethylcarbamoyl]anilino]-[1,2,4]triazolo[1,5-a]pyridin-8-yl]-3,6-dihydro-2H-pyridine-1-carboxylate]"
9,14.8,"CCOC(=O)N1CC=C(c2cccn3nc(Nc4ccc(C(=O)NC(C)c5cccc(C)n5)cc4)nc23)CC1 (centres unmarked) [Example 2-170, ethyl 4-[2-[4-[1-(6-methyl-2-pyridyl)ethylcarbamoyl]anilino]-[1,2,4]triazolo[1,5-a]pyridin-8-yl]-3,6-dihydro-2H-pyridine-1-carboxylate]"
10,12,"CCOC(=O)N1CC=C(c2cccn3nc(Nc4ccc(C(=O)NCCc5ccncc5)cc4)nc23)CC1 [Example 2-172, ethyl 4-[2-[4-[2-(4-pyridyl)ethylcarbamoyl]anilino]-[1,2,4]triazolo[1,5-a]pyridin-8-yl]-3,6-dihydro-2H-pyridine-1-carboxylate]"
11,12.2,"CCOC(=O)N1CC=C(c2cccn3nc(Nc4ccc(C(=O)N5CC6(CCN(C)CC6)C5)cc4)nc23)CC1 [Example 2-175, ethyl 4-[2-[4-(7-methyl-2,7-diazaspiro[3.5]nonane-2-carbonyl)anilino]-[1,2,4]triazolo[1,5-a]pyridin-8-yl]-3,6-dihydro-2H-pyridine-1-carboxylate]"
12,8.1,"CCOC(=O)N1CC=C(c2cccn3nc(Nc4ccc(C(=O)N5CC6(CCCN6C)C5)cc4)nc23)CC1 [Example 2-176, ethyl 4-[2-[4-(5-methyl-2,5-diazaspiro[3.4]octane-2-carbonyl)anilino]-[1,2,4]triazolo[1,5-a]pyridin-8-yl]-3,6-dihydro-2H-pyridine-1-carboxylate]"
13,15.4,"CCOC(=O)N1CC=C(c2cccn3nc(Nc4ccc(C(=O)NCc5cccnc5C)cc4)nc23)CC1 [Example 2-177, ethyl 4-[2-[4-[(2-methyl-3-pyridyl)methylcarbamoyl]anilino]-[1,2,4]triazolo[1,5-a]pyridin-8-yl]-3,6-dihydro-2H-pyridine-1-carboxylate]"
14,23.3,"O=C(CCC(F)(F)F)N1CC=C(c2cccn3nc(Nc4ccc(C(=O)N5CC6(CCCNC6)C5)cc4)nc23)CC1 [Example 2-186, 1-[4-[2-[4-(2,8-diazaspiro[3.5]nonane-2-carbonyl)anilino]-[1,2,4]triazolo[1,5-a]pyridin-8-yl]-3,6-dihydro-2H-pyridin-1-yl]-4,4,4-trifluoro-butan-1-one]"
